Reference: patent US20110118462A1, “N-HETEROCYCLIC SUBSTITUENT-CONTAINING ANTIBIOTIC, PREPARATION AND USE THEREOF” (priority 2009, published 2011)

Legend:
[1] = assay type: in vivo; details: for t1/2β: single intravenous administration (Ia 50 mg/kg·bw)
Protocol: The inventors conducted preliminary pharmacokinetic study of Compound Ia on Beagle dogs. The Beagle dogs were allowed to drink water freely but not to eat food for 16 hours before and 4 hours after the intravenous injection of 50 mg/kg·bw of the compound. Intravenous blood sampling took place at 0, 0.083, 0.17, 0.25, 0.5, 1, 1.5, 2, 3, 4, 6, 9, 12 hours, respectively, after the injection, each blood sample being 3 mL. Thereafter the dogs were given the drugs every other week and blood samples were taken according to the above manner. The blood samples were added to the centrifuge tubes containing heparin and thoroughly mixed by centrifuging at 4000 rpm for 10 minutes. The blood plasma was separated and an abstraction agent (methanol/ethyl acetate 3:2 V/V) was added to and mixed with it by centrifuging at 10000 rpm for 10 minutes. The top, clear liquid, 20 μL, was taken and analyzed by HPLC.

Pneumonia Chain Coccus [2] = experiment: Vitro bacteriostasis experiment, two-fold agar dilution method; assay type: cell-based
Protocol: (§1) Vitro bacteriostasis experiments of Compounds Ia, Ib, and Ic were performed using the two-fold agar dilution method.

Shigella = experiment: as above; assay type: cell-based
Protocol: as §1

Moraxella Catarrhalis [3] = experiment: as above; assay type: cell-based
Protocol: as §1

Haemophilus Influenzae = experiment: as above; assay type: cell-based
Protocol: as §1

Excrement Enterococcus [4] = experiment: as above; assay type: cell-based
Protocol: as §1

Type A Chain Coccus = experiment: as above; assay type: cell-based
Protocol: as §1

Type B Chain Coccus = experiment: as above; assay type: cell-based
Protocol: as §1

Solubility = assay type: physicochemical
Source text: Its chemical name is 7-(α-((N,N-diisopropylamidino)thio)acetylamino)-3-(((1,2,5,6-tetrahydro-2-methyl-5,6-dioxo-1,2,4-triazin-3-yl)thio)methyl) cephalosporanic acid mono sodium salt (Compound Ia).

Excrement Enterococcus [5] = experiment: In-vivo antibacterial activity (protection of rats)
[6] = Stability in the solid state, storage at various temperatures; assay type: physicochemical
Source text: (§2) Compared to Compound II, Compound I has better stability in aqueous solution (see Table 2) and in the solid state (See Table 3). Thus Compound I can be stored without freezing or special treatment.

[7] = Muscle stimulation test on rabbits; parameters: species or system New Zealand rabbits; details: rabbit, in vivo
Source text: The inventors have conducted the muscle stimulation test of Compounds Ia and II on rabbits. The test is as follows. Eight New Zealand rabbits were divided into three groups. Two groups, containing three rabbits per group, were administrated with Compound Ia and Compound II, respectively. The third group, containing two rabbits, was used as a negative control group. The rabbits were intramuscularly injected with high concentrations of the compounds into the left quadriceps and with low concentration into the right quadriceps. The negative control group was injected with an equal concentration of sodium chloride into the quadriceps of both sides. Each quadriceps was administrated with 1.0 mL once a day for three consecutive days. One or two rabbits from each group were anatomized after 48 hours of the injection. The remaining rabbits were anatomized after the end of the two-week recovery period.

[8] = Acute toxicity tests on rats; assay type: in vivo; details: intravenous injection
[9] = Stability in aqueous injection solutions at 37° C.; assay type: physicochemical
Source text: as §2

[10] = pH value of aqueous solution; assay type: physicochemical; details: for pH: concentration 0.1 g/mL
Protocol: The pH value of its saturated aqueous solution is 3.2.
At 5° C., sodium carbonate (0.1 g) was dissolved in deionized water (5 mL) in a three-neck flask. Compound II (1 g) was added to the flask with agitation (350 rpm) and the reaction was carried out for 45 minutes. The reaction mixture was discolored with activated carbon and then filtered. The filtration liquid was dropwise added to 80 mL of acetone to precipitate. The precipitation was monitored by an on-line particle analyzing instrument. The mixture was filtered and the solid was washed twice with acetone. Drying under vacuum at 40° C. for 24 hours gave 0.75 g of Compound Ia with a purity of 98.35% (HPLC) and pH 7.3 (concentration 0.1 g/mL).

Moraxella Catarrhalis [11] = experiment: In-vivo antibacterial activity (protection of rats)
Pneumonia Chain Coccus [12] = experiment: as above
[13] = healthy Beagle dogs, single intravenous administration 50 mg/kg·bw

Compound | t1/2β ([1]; healthy Beagle dogs) [min] | MIC90 (Pneumonia Chain Coccus [2]) [µg/mL] | MIC90 (Shigella) [µg/mL] | MIC90 (Moraxella Catarrhalis [3]) [µg/mL] | MIC90 (Haemophilus Influenzae) [µg/mL] | MIC90 (Excrement Enterococcus [4]) [µg/mL] | MIC90 (Type A Chain Coccus) [µg/mL] | MIC90 (Type B Chain Coccus) [µg/mL] | LD50 [8] [mg/kg] | content in aqueous injection solution ([9]; 0 hr) [%] | content in aqueous injection solution ([9]; 0.2 hr) [%] | content in aqueous injection solution ([9]; 1 hr) [%] | content in aqueous injection solution ([9]; 2 hr) [%] | content in aqueous injection solution ([9]; 3 hr) [%] | content in aqueous injection solution ([9]; 4 hr) [%] | pH [10] | also measured
CC(C)N(C(=N)SCC(=O)NC1C(=O)N2C(C(=O)[O-])=C(CSc3nc(=O)c(=O)[nH]n3C)CSC12)C(C)C.[Na+] (stereo not drawn) [Compound Ia, 7-(α-((N,N-diisopropylamidino)thio)acetylamino)-3-(((1,2,5,6-tetrahydro-2-methyl-5,6-dioxo-1,2,4-triazin-3-yl)thio)methyl) cephalosporanic acid mono sodium salt] | 155 ± 2.4 | 0.125 | 4 | 1 | 0.5 | 8 | 0.5 | 0.0625 | 1747.6 | 98.60 | 98.60 | 97.98 | 97.79 | 97.24 | 97.13 | 7.3 | AUC [1, 13]: 108.29 ± 18.17 µg·h/mL; CIB [1, 13]: 783 ± 1.5 mL/min/kg; V1 [1, 13]: 0.25 ± 0.07 L/kg; VB [1, 13]: 1.61 ± 0.30 L/kg; t1/2α [1, 13]: 37.8 ± 7.2 min; Cmax ([1]; healthy Beagle dogs, single intravenous administration 50 mg/kg·bw, plasma): 116.35 ± 12.06 µg/mL; drug concentration after 12 hours of the administration ([1]; healthy Beagle dogs, single intravenous administration 50 mg/kg·bw, plasma, 12 hours): 0.39 ± 0.09 µg/mL; solubility in acetone (Solubility): not readily soluble; solubility in anhydrous ethanol (Solubility): not readily soluble; solubility in methanol (Solubility): readily soluble; solubility in water (Solubility): readily soluble; protection for rats against Excrement Enterococcus (Excrement Enterococcus [5]): excellent protection; content after 72 hours in storage ([6]; 10° C.): 96.9%; content after 72 hours in storage ([6]; 40° C.): 96.6%; content after 72 hours in storage ([6]; 60° C.): 96.4%; content after 72 hours in storage ([6]; −5° C.): 97.0%; muscle irritation observed [7]: slight irritation; pH value ([10]; concentration not given): 7.3; protection for rats against Moraxella Catarrhalis (Moraxella Catarrhalis [11]): excellent protection; protection for rats against Pneumonia Chain Coccus (Pneumonia Chain Coccus [12]): excellent protection
CC(C)N(C(=N)SCC(=O)NC1C(=O)N2C(C(=O)[O-])=C(CSc3nc(=O)c(=O)[nH]n3C)CSC12)C(C)C.[K+] (stereo not drawn) [Compound Ic, 7-(α-((N,N-diisopropylamidino)thio)acetylamino)-3-(((1,2,5,6-tetrahydro-2-methyl-5,6-dioxo-1,2,4-triazin-3-yl)thio)methyl) cephalosporanic acid monopotassium salt] | – | 0.5 | 4 | 0.5 | 0.5 | 8 | 0.1 | 0.0156 | – | – | – | – | – | – | – | – | –
CC(=O)OCC1=C(C(=O)O)N2C(=O)[C@@H](NC(=O)CSC(=NC(C)C)NC(C)C)[C@H]2SC1 [cefathiamidine, reference compound] | 39 ± 1.8 | – | – | – | – | – | – | – | 824.2 | – | – | – | – | – | – | – | biological half-life in blood ([1]; Beagle dogs, preliminary pharmacokinetic study): 0.65 hours
CC(C)N=C(NC(C)C)SCC(=O)NC1C(=O)N2C(C(=O)[O-])=C(CSc3nc(=O)c(=O)[nH]n3C)CSC12.CC(C)N=C(NC(C)C)SCC(=O)NC1C(=O)N2C(C(=O)[O-])=C(CSc3nc(=O)c(=O)[nH]n3C)CSC12.[Na+].[Na+] (stereo not drawn) [Compound Ib, disodium 7-(α-((N,N′-diisopropylamidino)thio)acetylamino)-3-(((1,2,5,6-tetrahydro-2-methyl-5,6-dioxo-1,2,4-triazin-3-yl)thio)methyl) cephalosporanate] | – | 0.5 | 4 | 0.5 | 0.5 | 4 | 0.1 | 0.0125 | – | 98.80 | 98.54 | 97.14 | 96.66 | 95.21 | 94.30 | 10.02 | –
